Results from patent publication US10689377B2 (Mirati Therapeutics, Inc., priority 2017, dated 2020).

Key:
KRas G12C [1] = target: KRas G12C (Homo sapiens, UniProt P01116, C118S/C51S/C80L/G12C); assay: KRas G12C Modification Assay (LCMS detection of covalent adduct); format: binding; details: normalized percent of control; 5 μM concentration for 3 hours
Summary of the method: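 Intact protein analysed by LC/MS with deconvolution; unmodified protein signal normalized to no-compound control and reported as percent of control (POC).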

KRas G12C [2] = target: KRas G12C (Homo sapiens, UniProt P01116, G12C); assay: Cellular inhibition of KRas G12C measured by Phospho-ERK in NCI-H358 cells; format: cell-based; details: pERK(Thr202/Tyr204) normalized with GAPDH, NCI-H358 cells, 3 hours; read-out: IC50
Summary of the method: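 NCI-H358 cells were allowed to attach for 8-12 hours, then exposed to compounds for 3 hours at 0.5% DMSO final. After formaldehyde fixation and methanol permeabilization, phospho-ERK (Thr202/Tyr204) was detected by in-cell immunofluorescence and normalized to GAPDH; IC50 came from a 4-parameter fit of percent-of-DMSO values.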

SMILES | POC (KRas G12C [1]) | IC50 (KRas G12C [2])
CO[C@@H]1C[C@@H](COc2nc3c(c(N4CCN(C(=O)/C=C/CF)[C@@H](CC#N)C4)n2)CCN(c2cccc4cccc(Cl)c24)C3)N(C)C1 [Example 583, 2-[(2S)-4-[7-(8-chloro-1-naphthyl)-2-[[(2S,4R)-4-methoxy-1-methyl-pyrrolidin-2-yl]methoxy]-6,8-dihydro-5H-pyrido[3,4-d]pyrimidin-4-yl]-1-[(E)-4-fluorobut-2-enoyl]piperazin-2-yl]acetonitrile] | C (“C”>50% POC) | 0.0001 to 1 µM
N#CC[C@H]1CN(c2nc(OCCCN3C[C@@H]4C[C@H]3CO4)nc3c2CCN(c2cccc4cccc(Cl)c24)C3)CCN1C(=O)/C=C/CF [Example 585, 2-((S)-4-(2-(3-((1S,4S)-2-oxa-5-azabicyclo[2.2.1]heptan-5-yl)propoxy)-7-(8-chloronaphthalen-1-yl)-5,6,7,8-tetrahydropyrido[3,4-d]pyrimidin-4-yl)-1-((E)-4-fluorobut-2-enoyl)piperazin-2-yl)acetonitrile] | C (“C”>50% POC) | 0.0001 to 1 µM
CN1CCC[C@@H]1COc1nc2c(c(N3CCN(C(=O)/C=C/CF)[C@@H](CC#N)C3)n1)CCN(c1cccc3cccc(Cl)c13)C2 [Example 586, 2-[(2S)-4-[7-(8-chloro-1-naphthyl)-2-[[(2R)-1-methylpyrrolidin-2-yl]methoxy]-6,8-dihydro-5H-pyrido[3,4-d]pyrimidin-4-yl]-1-[(E)-4-fluorobut-2-enoyl]piperazin-2-yl]acetonitrile] | C (“C”>50% POC) | 0.0001 to 1 µM
CC(=O)N(C)C/C=C/C(=O)N1CCN(c2nc(OC[C@@H]3CCCN3C)nc3c2CCN(c2cccc4cccc(C)c24)C3)C[C@@H]1CC#N [Example 587] | A (“A”≤25% POC) | > 1 µM
C=C(F)C(=O)N1CCN(c2nc(OC[C@@H]3CCCN3C)nc3c2CCN(c2cccc4cccc(Br)c24)C3)C[C@@H]1CC#N [Example 588, 2-((S)-4-(7-(8-Bromonaphthalen-1-yl)-2-(((S)-1-methylpyrrolidin-2-yl)methoxy)-5,6,7,8-tetrahydropyrido[3,4-d]pyrimidin-4-yl)-1-(2-fluoroacryloyl)piperazin-2-yl)acetonitrile] | C (“C”>50% POC) | 0.0001 to 1 µM
C=C(F)C(=O)N1CCN(c2nc(OC[C@@H]3CCCN3C)nc3c2CCN(c2cccc4cccc(C(F)(F)F)c24)C3)C[C@@H]1CC#N [Example 589, 2-((S)-1-(2-Fluoroacryloyl)-4-(2-(((S)-1-methylpyrrolidin-2-yl)methoxy)-7-(8-(trifluoromethyl)naphthalen-1-yl)-5,6,7,8-tetrahydropyrido[3,4-d]pyrimidin-4-yl)piperazin-2-yl)acetonitrile] | C (“C”>50% POC) | 0.0001 to 1 µM
C=C(F)C(=O)N1CCN(c2nc(OC[C@@H]3CCCN3C)nc3c2CCN(c2cccc4cccc(C5CC5)c24)C3)C[C@@H]1CC#N [Example 590, 2-((S)-4-(7-(8-Cyclopropylnaphthalen-1-yl)-2-(((S)-1-methylpyrrolidin-2-yl)methoxy)-5,6,7,8-tetrahydropyrido[3,4-d]pyrimidin-4-yl)-1-(2-fluoroacryloyl)piperazin-2-yl)acetonitrile] | B (“B”>25% POC-≤50% POC) | > 1 µM
C=C(F)C(=O)N1CCN(c2nc(OC[C@@H]3CCCN3C)nc3c2CCN(c2cccc4cccc(C(C)C)c24)C3)C[C@@H]1CC#N [Example 591] | B (“B”>25% POC-≤50% POC) | > 1 µM
C=C(F)C(=O)N1CCN(c2nc(OC[C@@H]3CCCN3C)nc3c2CCN(c2cccc4ccnc(C)c24)C3)C[C@@H]1CC#N [Example 592] | C (“C”>50% POC) | > 1 µM
C=C(F)C(=O)N1CCN(c2nc(OC[C@@H]3CCCN3C)nc3c2CCN(c2cncc4cccc(Cl)c24)C3)C[C@@H]1CC#N [Example 593, 2-((S)-4-(7-(5-Chloroisoquinolin-4-yl)-2-(((S)-1-methylpyrrolidin-2-yl)methoxy)-5,6,7,8-tetrahydropyrido[3,4-d]pyrimidin-4-yl)-1-(2-fluoroacryloyl)piperazin-2-yl)acetonitrile] | C (“C”>50% POC) | 0.0001 to 1 µM
C=C(F)C(=O)N1CCN(c2nc(OC[C@@H]3CCCN3C)nc3c2CCN(c2nccc4cccc(Br)c24)C3)C[C@@H]1CC#N [Example 594, 2-((S)-4-(7-(8-Bromoisoquinolin-1-yl)-2-(((S)-1-methylpyrrolidin-2-yl)methoxy)-5,6,7,8-tetrahydropyrido[3,4-d]pyrimidin-4-yl)-1-(2-fluoroacryloyl)piperazin-2-yl)acetonitrile] | A (“A”≤25% POC) | > 1 µM
C=C(F)C(=O)N1CCN(c2nc(OC[C@@H]3CCCN3C)nc3c2CCN(c2cccc4ccnc(Cl)c24)C3)C[C@@H]1CC#N [Example 595, 2-((S)-4-(7-(1-chloroisoquinolin-8-yl)-2-(((S)-1-methylpyrrolidin-2-yl)methoxy)-5,6,7,8-tetrahydropyrido[3,4-d]pyrimidin-4-yl)-1-(2-fluoroacryloyl)piperazin-2-yl)acetonitrile] | C (“C”>50% POC) | 0.0001 to 1 µM
C=C(F)C(=O)N1CCN(c2nc(OC[C@@H]3CCCN3Cc3ccccc3)nc3c2CCN(c2cccc4cccc(C)c24)C3)C[C@@H]1CC#N [Example 596, 2-((S)-4-(2-(((S)-1-Benzylpyrrolidin-2-yl)methoxy)-7-(8-methylnaphthalen-1-yl)-5,6,7,8-tetrahydropyrido[3,4-d]pyrimidin-4-yl)-1-(2-fluoroacryloyl)piperazin-2-yl)acetonitrile] | C (“C”>50% POC) | 0.0001 to 1 µM
C=C(F)C(=O)N1CCN(c2nc(OC[C@@H]3CCCN3CCF)nc3c2CCN(c2cccc4cccc(Cl)c24)C3)C[C@@H]1CC#N [Example 598, 2-((S)-4-(7-(8-Chloronaphthalen-1-yl)-2-(((S)-1-(2-fluoroethyl)pyrrolidin-2-yl)methoxy)-5,6,7,8-tetrahydropyrido[3,4-d]pyrimidin-4-yl)-1-(2-fluoroacryloyl)piperazin-2-yl)acetonitrile] | C (“C”>50% POC) | 0.0001 to 1 µM
C=C(F)C(=O)N1CCN(c2nc(SC[C@@H]3CCCN3C)nc3c2CCN(c2cccc4cccc(C)c24)C3)C[C@@H]1CC#N [Example 599, 2-((S)-1-(2-Fluoroacryloyl)-4-(7-(8-methylnaphthalen-1-yl)-2-((((S)-1-methylpyrrolidin-2-yl)methyl)thio)-5,6,7,8-tetrahydropyrido [3,4-d]pyrimidin-4-yl)piperazin-2-yl)acetonitrile] | C (“C”>50% POC) | > 1 µM
C=C(F)C(=O)N1CCN(c2nc(OC[C@@H]3CCCN3C)nc3c2CCN(c2cncc(Cl)c2C(F)(F)F)C3)C[C@@H]1CC#N [Example 600, 2-((S)-4-(7-(5-Chloro-4-(trifluoromethyl)pyridin-3-yl)-2-(((S)-1-methylpyrrolidin-2-yl)methoxy)-5,6,7,8-tetrahydropyrido[3,4-d]pyrimidin-4-yl)-1-(2-fluoroacryloyl)piperazin-2-yl)acetonitrile] | C (“C”>50% POC) | 0.0001 to 1 µM
